Source: patent publication US8623331B2, “Compressed chewing gum tablet” (Fertin Pharma A/S, priority 2007, dated 2014)
“Also recorded” adds a separate entry of the source.

Columns and labels:
[1] = Release control, gum base content different with respect to weight (two-module compressed chewing gum tablet); conditions: first layer: NPR with a large amount of gum base; second layer: Na2CO3 with a small amount of gum base
Protocol: (§1) Control of the release was tested for chewing gum tablets comprising two modules with different gum base content and a different active ingredient in each of them.
In this example a gum base content different with respect to weight was investigated. In the first layer the active ingredient (NPR) was present with a large amount of gum base and in the second layer the active ingredient (Na2CO3 pH control agent) was present with a small amount of gum base.
To ensure that the result of this example was not due to different API in the two layers, the example was further supplemented with a test with two different weights of the same API in the compositions in the two layers, where it was again seen that the release was dependent on the weight of the gum base content in the chewing gum composition.

[2] = Release control, gum base content different with respect to composition (two-module compressed chewing gum tablet); conditions: first layer: NPR outside the gum base granules; second layer: Na2CO3 approx. 50 Wt-% outside and approx. 50 Wt-% incorporated in the granules
Protocol: as §1
In this example a gum base content different with respect to composition was investigated. In the first layer the active ingredient (NPR) was added to the chewing gum composition outside the gum base granules and in the second layer the active ingredient (Na2CO3 pH control agent) was added approximately 50 Wt-% to the chewing gum composition outside the gum base granules and approximately 50 Wt-% incorporated in the granules.
To ensure that the result of this example was not due to different API in the two layers, the example was further supplemented with a test with the same amount of a same API incorporated in the granules and added directly to the composition respectively, where it was again seen that the release was dependent on the chewing gum composition

[3] = Release control, different size of applied chewing gum granules (two-module compressed chewing gum tablet); conditions: first layer: NPR with granules of relatively smaller average diameter; second layer: Na2CO3 with granules of relatively larger average diameter
Protocol: as §1
In this example a gum base content different with respect to size of applied chewing gum granules was investigated.
In the first layer the active ingredient (NPR) was present with chewing gum granules with a relatively smaller average diameter and in the second layer the active ingredient (Na2CO3 pH control agent) was present with chewing gum granules with a relatively larger average diameter.
To ensure that the result of this example was not due to different API in the two layers, the example was further supplemented with a test with the same API in two compositions of different chewing gum granule sizes. Here it was again seen that the release was dependent on the size of the chewing gum granules used in the layers of the gum base content in the chewing gum composition.

## O=C([O-])[O-].[Na+].[Na+] [Na2CO3]
[1]
  release of active ingredient from the chewing gum tablet: faster than the release of the NPR
[2]
  release of active ingredient from the chewing gum tablet: fast release of part of the pH control agent; also recorded: slower release of the remaining part of the pH control agent
[3]
  release of active ingredient from the chewing gum tablet: faster than the release of the NPR
